According to ChEMBL document CHEMBL3603819, “Targeting zoonotic viruses: Structure-based inhibition of the 3C-like protease from bat coronavirus HKU4--The likely reservoir host to the human coronavirus that causes Middle East Respiratory Syndrome (MERS)” (Bioorg Med Chem, 2015):

These compounds were tested on Tylonycteris bat coronavirus HKU4. Conditions: at 100 µM.

First: CC(C)(C)NC(=O)C(c1cccnc1)N(C(=O)Cc1cccc2ccccc12)c1ccc(C(C)(C)C)cc1 (centres undefined)
Second: CC(C)(C)NC(=O)C(c1ccsc1)N(C(=O)Cc1cccc2ccccc12)c1ccc(C(C)(C)C)cc1 (centres undefined)
The inhibition of the first is higher: 26% for the first, 15% for the second.

First: CC(C)(C)NC(=O)C(c1cccnc1)N(C(=O)c1coc2ccccc12)c1ccc(C(C)(C)C)cc1 (centres undefined)
Second: CC(C)(C)NC(=O)C(c1cccnc1)N(C(=O)c1ccccc1O)c1ccc(C(C)(C)C)cc1 (centres undefined)
The inhibition of the first is higher: 19% for the first, 11% for the second.

First: CC(C)(C)NC(=O)C(c1ccsc1)N(C(=O)c1cccc2c1CCCC2)c1ccc(F)cc1 (centres undefined)
Second: CC(C)(C)NC(=O)C(c1ccsc1)N(C(=O)c1cccc2c1CCCC2)c1ccc(OCF)cc1 (centres undefined)
The inhibition of the first is higher: 17% for the first, 15% for the second.

Going from `CC(C)(C)c1ccc(N(Cc2cccnc2)C(=O)c2ccoc2)cc1` to `CC(C)(C)c1ccc(N(Cc2cccnc2)C(=O)c2c[nH]cn2)cc1`, the inhibition rises from 24% to 28%.

Going from `CC(C)(C)NC(=O)C(c1cccnc1)N(C(=O)c1ccco1)c1ccc(-c2ccc[nH]2)cc1` (centres undefined) to `CC(C)(C)NC(=O)C(c1cccnc1)N(C(=O)c1ccco1)c1ccc(F)cc1` (centres undefined), the inhibition rises from 31% to 41%.

First: O=C(Cn1nnc2ccccc21)N(Cc1ccsc1)c1ccc(NC(=O)C(F)(F)F)cc1
Second: CC(C)(C)C(=O)Nc1ccc(N(Cc2ccsc2)C(=O)Cn2nnc3ccccc32)cc1
The inhibition of the first is higher: 92% for the first, 67% for the second.

`CC(C)(C)NC(=O)C(c1cccnc1)N(C(=O)c1ccco1)C1CC2CCC1C2` (centres undefined) and `CC(C)(C)NC(=O)C(c1ccsc1)N(C(=O)Cc1cccnc1)C1CC1` (centres undefined) are the same in inhibition: 16% for the first, 16% for the second.

Going from `CC(C)(C)NC(=O)C(c1cccnc1)N(C(=O)c1cccc2c1CCCC2)C1CC1` (centres undefined) to `CC(C)(C)NC(=O)C(c1cccnc1)N(C(=O)c1cccc2c1CCCC2)c1ccc(OCF)cc1` (centres undefined), the inhibition rises from 18% to 21%.

First: CC(C)(C)NC(=O)C(c1ccsc1)N(C(=O)Cc1cccnc1)c1ccc(F)cc1 (centres undefined)
Second: CC(C)(C)NC(=O)C(c1ccsc1)N(C(=O)Cc1cccnc1)c1ccc(OCF)cc1 (centres undefined)
The inhibition of the first is lower: 24% for the first, 29% for the second.

First: CC(C)(C)NC(=O)C(c1cccnc1)N(C(=O)c1cc[nH]n1)c1ccc(C(C)(C)C)cc1 (stereo in doubt; 124B)
Second: CC(C)(C)NC(=O)C(c1cccnc1)N(C(=O)c1c[nH]cn1)c1ccc(C(C)(C)C)cc1 (racemic)
The inhibition of the first is lower: 17% for the first, 94% for the second.

Compared with `CC(C)(C)NC(=O)C(c1cccnc1)N(C(=O)Cc1cccnc1)c1ccc(C(C)(C)C)cc1` (centres undefined), `CC(C)(C)NC(=O)C(c1cccnc1)N(C(=O)c1cccnc1)c1ccc(C(C)(C)C)cc1` (centres undefined) is lower in inhibition: 23% for the first, 13% for the second.

Going from `CC(C)(C)NC(=O)C(c1ccsc1)N(C(=O)Cc1c[nH]c2ccccc12)c1ccc(F)cc1` (centres undefined) to `CC(C)(C)NC(=O)C(c1cccnc1)N(C(=O)Cc1c[nH]c2ccccc12)c1ccc(F)cc1` (centres undefined), the inhibition rises from 22% to 41%.

Going from `CC(C)(C)NC(=O)C(c1cccnc1)N(C(=O)c1ccco1)c1ccc(/C=C/c2ccccc2)cc1` (centres undefined) to `CC(C)(C)NC(=O)C(c1cccnc1)N(C(=O)c1ccco1)c1ccc(Cc2ccccc2)cc1` (centres undefined), the inhibition falls from 21% to 8%.

Going from `CC(C)(C)NC(=O)C(c1cncnc1)N(C(=O)c1c[nH]cn1)c1ccc(C(C)(C)C)cc1` (centres undefined) to `CC(C)(C)NC(=O)C(c1cncnc1)N(C(=O)c1ccco1)c1ccc(C(C)(C)C)cc1` (centres undefined), the inhibition falls from 84% to 16%.

First: COc1ncccc1-c1ccc(N(Cc2ccsc2)C(=O)Cn2nnc3ccccc32)cc1
Second: O=C(Cn1nnc2ccccc21)N(Cc1ccsc1)c1ccc(-c2ccncc2)cc1
The inhibition of the first is lower: 90% for the first, 98% for the second.

`CC(C)(C)NC(=O)C(c1cccnc1)N(C(=O)c1ccco1)c1ccc(-c2ccc(F)cc2F)cc1` (centres undefined) and `CC(C)(C)NC(=O)C(c1cccnc1)N(C(=O)c1ccco1)c1ccc(-c2cccc(C#N)c2)cc1` (centres undefined) are the same in inhibition: 16% for the first, 16% for the second.

Going from `CC(C)(C)NC(=O)C(c1ccsc1)N(C(=O)Cn1nnc2ccccc21)c1ccc(NC(=O)c2ccno2)cc1` (centres undefined) to `CC(C)(C)NC(=O)C(c1ccsc1)N(C(=O)Cn1nnc2ccccc21)c1ccc(NC(=O)C2CC2)cc1` (centres undefined), the inhibition rises from 76% to 85%.

Compared with `CC(C)(C)NC(=O)C(c1ccsc1)N(C(=O)Cc1cccc2ccccc12)C1CC1` (centres undefined), `CC(C)(C)NC(=O)C(c1cccnc1)N(C(=O)Cc1cccc2ccccc12)C1CC1` (centres undefined) is lower in inhibition: 22% for the first, 11% for the second.

Compared with `CC(C)(C)NC(=O)C(c1cccnc1)N(C(=O)CO)c1ccc(C(C)(C)C)cc1` (centres undefined), `CC(C)(C)NC(=O)C(c1cccnc1)N(C(=O)c1ccc[nH]1)c1ccc(C(C)(C)C)cc1` (centres undefined) is lower in inhibition: 29% for the first, 16% for the second.

Compared with `CC(C)(C)NC(=O)C(c1cccnc1)N(C(=O)c1ccco1)c1ccc(OCc2ccccc2)cc1` (centres undefined), `CC(C)(C)NC(=O)C(c1cccnc1)N(C(=O)c1ccco1)c1ccc(NS(=O)(=O)c2ccccc2)cc1` (centres undefined) is higher in inhibition: 14% for the first, 16% for the second.

First: CC(C)(C)NC(=O)C(c1ccsc1)N(C(=O)c1ccco1)c1ccc(C(C)(C)C)cc1 (centres undefined)
Second: CC(C)(C)NC(=O)C(c1ccsc1)N(C(=O)c1ccco1)c1ccc(F)cc1 (centres undefined)
The inhibition of the first is higher: 19% for the first, 16% for the second.

First: CC(C)(C)NC(=O)C(c1cccc(F)c1)N(C(=O)Cn1nnc2ccccc21)C12CC3CC(CC(C3)C1)C2 (centres undefined)
Second: CC(C)(C)NC(=O)C(c1cccc(F)c1)N(C(=O)Cn1nnc2ccccc21)C1CC2CCC1C2 (centres undefined)
The inhibition of the first is lower: 14% for the first, 15% for the second.

First: CC(C)(C)NC(=O)C(c1ccsc1)N(C(=O)Cc1cccnc1)c1ccc(C(C)(C)C)cc1 (centres undefined)
Second: CC(C)c1ccc(N(C(=O)Cc2cccnc2)C(C(=O)NC(C)(C)C)c2ccsc2)cc1 (centres undefined)
The inhibition of the first is lower: 23% for the first, 24% for the second.

First: CC(C)(C)NC(=O)C(c1ccsc1)N(C(=O)c1n[nH]c2ccccc12)c1ccc(C(C)(C)C)cc1 (centres undefined)
Second: CC(C)(C)NC(=O)C(c1cccnc1)N(C(=O)c1n[nH]c2ccccc12)c1ccc(F)cc1 (centres undefined)
The inhibition of the first is higher: 16% for the first, 14% for the second.

Going from `CC(C)(C)NC(=O)C(c1ccsc1)N(C(=O)Cc1cccc2ccccc12)c1ccc(F)cc1` (centres undefined) to `CC(C)(C)NC(=O)C(c1ccsc1)N(C(=O)Cn1cnc2ccccc21)c1ccc(N)cc1` (centres undefined), the inhibition rises from 15% to 18%.

First: COc1cccc(Oc2ccc(N(C(=O)c3ccco3)C(C(=O)NC(C)(C)C)c3cccnc3)cc2)c1 (centres undefined)
Second: COc1ccc(N(C(=O)c2ccco2)C(C(=O)NC(C)(C)C)c2cccnc2)cc1 (centres undefined)
The inhibition of the first is higher: 18% for the first, 10% for the second.

First: O=C(Cn1nnc2ccccc21)N(Cc1ccsc1)c1ccc(NCc2ccccc2)cc1
Second: O=C(Nc1ccc(N(Cc2ccsc2)C(=O)Cn2nnc3ccccc32)cc1)c1ccccc1
The inhibition of the first is lower: 64% for the first, 90% for the second.

Compared with `CC(C)C(=O)Nc1ccc(N(C(=O)Cn2cnc3ccccc32)C(C(=O)NC(C)(C)C)c2ccsc2)cc1` (centres undefined), `Cc1nccn1CC(=O)N(c1ccc(NC(=O)C(C)C)cc1)C(C(=O)NC(C)(C)C)c1ccsc1` (centres undefined) is lower in inhibition: 56% for the first, 18% for the second.

Going from `CC(C)(C)NC(=O)C(c1c[nH]nn1)N(C(=O)c1ccco1)c1ccc(C(C)(C)C)cc1` (centres undefined) to `CC(C)(C)NC(=O)C(c1cccnc1)N(C(=O)c1ncco1)c1ccc(C(C)(C)C)cc1` (centres undefined), the inhibition rises from 16% to 30%.

Going from `Cc1ccc(C(=O)N(c2ccc(C(C)(C)C)cc2)C(C(=O)NC(C)(C)C)c2cccnc2)o1` (centres undefined) to `CC(C)(C)NC(=O)C(c1cccnc1)N(C(=O)c1ccc(C(F)(F)F)o1)c1ccc(C(C)(C)C)cc1` (centres undefined), the inhibition falls from 26% to 16%.

First: CC(C)C(=O)Nc1ccc(N(Cc2ccsc2)C(=O)Cn2nnc3ccccc32)cc1
Second: CC(C)COC(=O)Nc1ccc(N(Cc2ccsc2)C(=O)Cn2nnc3ccccc32)cc1
The inhibition of the first is higher: 92% for the first, 75% for the second.

First: CC(=O)Nc1ccc(N(C(=O)Cn2cc([Si](C)(C)C)nn2)C(C(=O)NC(C)(C)C)c2ccsc2)cc1 (centres undefined)
Second: CC(=O)Nc1ccc(N(C(=O)Cn2ccnn2)C(C(=O)NC(C)(C)C)c2ccsc2)cc1 (centres undefined)
The inhibition of the first is lower: 20% for the first, 27% for the second.

First: CCC(C)c1ccc(N(C(=O)c2ccco2)[C@H](C(=O)NC(C)(C)C)c2cccnc2)cc1 (some centres undefined)
Second: Cc1ccoc1C(=O)N(c1ccc(C(C)C)cc1)C(C(=O)NC(C)(C)C)c1cccnc1 (centres undefined)
The inhibition of the first is higher: 39% for the first, 36% for the second.

Compared with `CC(C)(C)NC(=O)C(c1ccccn1)N(C(=O)c1cccnc1)c1ccc(C(C)(C)C)cc1` (centres undefined), `COc1cccc(C(=O)N(c2ccc(C(C)(C)C)cc2)C(C(=O)NC(C)(C)C)c2cccnc2)c1` (centres undefined) is higher in inhibition: 12% for the first, 17% for the second.

Compared with `O=C(Nc1ccc(N(C(=O)Cn2nnc3ccccc32)C(C(=O)NCc2ccccc2)c2cccc(F)c2)cc1)C1CC1` (centres undefined), `O=C(Nc1ccc(N(C(=O)Cn2nnc3ccccc32)C(C(=O)NCc2ccccc2)c2cccc(F)c2)cc1)C1CCC1` (centres undefined) is higher in inhibition: 71% for the first, 74% for the second.

Going from `CC(C)(C)NC(=O)C(c1ccsc1)N(C(=O)c1ccc(C(F)(F)F)cn1)c1ccc(OCF)cc1` (centres undefined) to `CC(C)(C)NC(=O)C(c1ccsc1)N(C(=O)c1ccc(C(F)(F)F)cn1)c1ccc(F)cc1` (centres undefined), the inhibition rises from 18% to 19%.

Going from `CC(C)(C)NC(=O)C(c1cccnc1)N(C(=O)c1n[nH]c2ccccc12)C1CC1` (centres undefined) to `CC(C)(C)NC(=O)C(c1cccnc1)N(C(=O)c1ccc(C#N)cc1)C1CC1` (centres undefined), the inhibition rises from 21% to 23%.

First: CC(C)c1ccc(N(C(=O)c2ccc(C#N)cc2)C(C(=O)NC(C)(C)C)c2ccsc2)cc1 (centres undefined)
Second: CC(C)(C)NC(=O)C(c1cccnc1)N(C(=O)c1ccc(C#N)cc1)c1ccc(C(C)(C)C)cc1 (centres undefined)
The inhibition of the first is higher: 21% for the first, 11% for the second.

Compared with `CC(C)(C)NC(=O)C(c1cccnc1)N(C(=O)c1cccc2c1CCCC2)c1ccc(C(C)(C)C)cc1` (centres undefined), `CC(C)(C)NC(=O)C(c1cccnc1)N(C(=O)C1CCCO1)c1ccc(C(C)(C)C)cc1` (centres undefined) is lower in inhibition: 21% for the first, 18% for the second.

Compared with `CC(C)C(=O)Nc1ccc(N(Cc2ccsc2)C(=O)Cn2cc(-c3ccccc3)nn2)cc1`, `CC(C)C(=O)Nc1ccc(N(Cc2ccsc2)C(=O)Cn2ccnn2)cc1` is higher in inhibition: 25% for the first, 63% for the second.

Going from `CC(=O)Nc1ccc(N(C(=O)Cn2cc(-c3ccccc3)nn2)C(C(=O)NC(C)(C)C)c2ccsc2)cc1` (centres undefined) to `CC(=O)Nc1ccc(N(C(=O)Cn2ccnc2C)C(C(=O)NC(C)(C)C)c2ccsc2)cc1` (centres undefined), the inhibition falls from 19% to 17%.

Compared with `CC(C)(C)NC(=O)C(c1cccnc1)N(C(=O)c1ccco1)c1ccc(-c2ccc(C#N)cc2)cc1` (centres undefined), `CC(C)(C)NC(=O)C(c1cccnc1)N(C(=O)Cc1cccnc1)c1ccc(F)cc1` (centres undefined) is higher in inhibition: 14% for the first, 47% for the second.

First: CC(C)(C)NC(=O)C(c1ccsc1)N(C(=O)Cn1nnc2ccccc21)c1ccc(NC(=O)C2CCC2)cc1 (centres undefined)
Second: CCC(=O)Nc1ccc(N(Cc2ccsc2)C(=O)Cn2nnc3ccccc32)cc1
The inhibition of the first is lower: 20% for the first, 92% for the second.

Compared with `COCC(=O)N(c1ccc(C(C)C)cc1)C(C(=O)NC(C)(C)C)c1cccnc1` (centres undefined), `CC(C)c1ccc(N(C(=O)c2ccc(C(F)(F)F)nc2)C(C(=O)NC(C)(C)C)c2cccnc2)cc1` (centres undefined) is lower in inhibition: 23% for the first, 18% for the second.

In the case of `CC(C)(C)NC(=O)C(c1cccnc1)N(C(=O)c1n[nH]c2ccccc12)c1ccc(OC(F)F)cc1` (centres undefined), the inhibition is reported as 24%.
